Test results published in article PMC10874388, “Cyclic peptides discriminate BCL-2 and its clinical mutants from BCL-XL by engaging a single-residue discrepancy” (Nature Communications, 2024).
Where “and” joins values, the source holds several entries; their conditions need not be identical. Equal entries are not always repeated.

How the values were obtained:
[1] = test system: A549 cells overexpressing BCL-2 WT; test: Cell viability assay, A549 stably overexpressing BCL-2 WT; type: cell-based; conditions: for BCL2-WT inhibition rate / raw luminescence reading: A549 BCL2-WT, single wells; for luminescence reading (raw, replicate wells) / luminescence reading, everage / inhibition rate: BCL2-WT A549; for luminescence reading, everage: mean of 6 wells
Description: Cell viability was measured using CellTiter-Glo® 2.0 Reagent (Promega, G9242). […] After different inhibitors were added into serum-free medium and cultured for 4 h (RS4:11 for 6 h), FBS were supplemented to 10% and then incubated totally for 24 h or 48 h. Finally, the IC50 values were calculated based on measurements using a microplate reader (Thermo, Varioskan LUX). Statistical analysis was performed using software GraphPad Prism 7.0.
Lentivirus packaging vectors pMDLg/pRRE, pRSV-Rev, and pVSV-G were obtained from Prof. Han Jiahuai’s lab (Xiamen University). Lentiviruses were produced using 3rd-generation lentivirus packaging plasmids transiently transfected into HEK293T cells with the constructs of interest using 0.25 M CaCl2. Media was changed after 16 h, and supernatants containing infectious virus particles were harvested 24 h later. A second viral harvest was made following a further 24 h incubation with fresh media. Virus containing supernatant was filtered through a […], and stored at 4 °C or −80 °C until being used. Typically, A549 cells were seeded into 10 cm cell culture dishes at 4 ~ 8 × 10^5 cells/cm^2. An equivalent volume of virus containing culture medium was added along with polybrene (Sigma) to a final concentration of 10 µg/mL. Cells were incubated at 37 °C for 20 h, before they were washed and resuspended in fresh culture media. The expression level of BCL-2 was measured by qPCR and western blot methods.

BCL-2 G101V = test system: BCL-2 G101V; set-up: method as in PMID 31160589; conditions: SPR assays; cited from earlier work
Jurkat cells [2] = test: Apoptosis assay, Annexin V-FITC/PI staining and flow cytometry; type: cell-based
Description: Jurkat cells were seeded to 6-well plates at a density of 4 ×10^5 cells per well. Cells were incubated in the presence of DMSO, venetoclax at 2.5 μM, cp1-TAT at 30 μM, cp2-TAT at 30 μM, or cp3-TAT at 20 μM in serum-free RPMI medium for 4 h. After being incubated totally for 24 h, cells were washed once with PBS and stained with 100 μL binding buffer containing 5 μL Annexin V-FITC and 10 μL PI for 15 min, followed by addition of 400 μL binding buffer to detect cell apoptosis with FCM (BD FACSAria Fusion). Statistical analysis was performed using software FlowJo V10 and GraphPad Prism 7.0.

Jurkat cells [3] = test: Cytochrome C release assay (mitochondrial cytochrome C, Western blot); type: cell-based; conditions: 2.5 μM, 12 h
Description: Jurkat cells at 2 ×10^6 cells/mL were incubated in the presence of DMSO or 50 μM BIP-V5 inhibitor[54] (Yuanye Biotechnology Co., Ltd, 579492-81-2) for 24 h. Two groups of above treated cells were each divided into four groups and incubated in the presence of DMSO, venetoclax at 2.5 μM, cp4-TAT at 20 μM, or cp5-TAT at 15 μM in serum-free RPMI medium for 4 h. Then the medium was supplemented with FBS to 10% and incubated for another 8 h. After being treated by venetoclax or CPs for totally 12 h, cell were processed with the Mitochondrial Separation Kit (Beyotime, C3601) to extract mitochondria. Cytochrome C in mitochondria and BAX proteins in the whole cells were detected by Western blot.
Cell lysates containing equal amounts of total proteins were denatured, subjected to electrophoresis on SDS-PAGE gels, and transferred onto nitrocellulose membranes. The blots were blocked with 5% skim milk and then incubated at 4 °C overnight with the corresponding primary antibodies against BCL-2 (dilution 1:1000, Abcam, ab194583), BCL-XL (dilution 1:1000, Abcam, ab32370), anti-Flag (dilution 1:1000, Sigma, F1804), cytochrome C (dilution 1:1000, Beyotime, AC909), BAX (dilution 1:1000, Beyotime, AB026), α-Tubulin (dilution 1:3000, Abcam, ab7291), or β-Actin (dilution 1:3000, Abcam, ab8227). […]

Question: What does the source list for `O=C(c1cc(-c2cc3c(cc2C(=O)N2Cc4ccccc4C[C@H]2CN2CCOCC2)OCO3)n2c1CCCC2)N(c1ccccc1)c1ccc(O)cc1` [S55746]?
Answer: BCL2-WT inhibition rate ([1]; 3.125 uM): 2.61% and 4.22% and -4.33% and 4% and -2.32%; raw luminescence reading ([1]; 3.125 uM): 861200 and 847000 and 922600 and 850300 and 904800 and 882000; BCL2-WT inhibition rate ([1]; 6.25 uM): 12% and 11% and 10% and 8% and 15%; raw luminescence reading ([1]; 6.25 uM): 774200 and 789000 and 799200 and 813400 and 753900 and 827800; BCL2-WT inhibition rate ([1]; 12.5 uM): 25% and 23% and 22% and 26%; raw luminescence reading ([1]; 12.5 uM): 665800 and 680900 and 679300 and 687300 and 653500 and 700500; BCL2-WT inhibition rate ([1]; 25 uM): 32% and 31%; raw luminescence reading ([1]; 25 uM): 602600 and 612300 and 599000 and 609600 and 600600 and 625900; BCL2-WT inhibition rate ([1]; 50 uM): 45%; raw luminescence reading ([1]; 50 uM): 489600 and 486500 and 483800 and 490200 and 490400 and 500400; BCL2-WT inhibition rate ([1]; 100 uM): 51% and 50%; raw luminescence reading ([1]; 100 uM): 433600 and 432600 and 430000 and 431900 and 437900 and 439800; BCL2-WT inhibition rate ([1]; 200 uM): 51% and 53% and 52% and 50%; raw luminescence reading ([1]; 200 uM): 434700 and 435900 and 419200 and 420100 and 446100 and 441200

Question: For `CC1(C)CCC(CN2CCN(c3ccc(C(=O)NS(=O)(=O)c4ccc(NCC5CCOCC5)c([N+](=O)[O-])c4)c(Oc4cnc5[nH]ccc5c4)c3)CC2)=C(c2ccc(Cl)cc2)C1` [venetoclax], which “Reduction of binding affinity of BCL-2 to venetoclax by G101V” value (BCL-2 G101V) is on record?
Answer: Its value is ~ 180 fold.

Question: And the “luminescence reading (raw, replicate wells)” value ([1]; ABT-199 0.390625 uM)?
Answer: The value was 644100 and 629100 and 637900 and 643500 and 647000 and 655800.

Question: What about the “luminescence reading, everage” value ([1]; ABT-199 0.390625 uM) of the same compound?
Answer: The value was 642900.

Question: What about the inhibition rate ([1]; ABT-199 0.390625 uM, replicate wells) of the same compound?
Answer: Its inhibition rate is -3.29% and -4.73% and -5.65% and -6% and -8% and -5.55%.

Question: What about the “luminescence reading (raw, replicate wells)” value ([1]; ABT-199 0.78125 uM) of the same compound?
Answer: The value was 567400 and 598600 and 586100 and 654900 and 608300 and 579900.

Question: And the “luminescence reading, everage” value ([1]; ABT-199 0.78125 uM)?
Answer: Its value is 599200.

Question: And the inhibition rate ([1]; ABT-199 0.78125 uM, replicate wells)?
Answer: Its inhibition rate is 1.72% and 3.77% and -7.52% and 0.129% and 5% and 1.62%.

Question: And the “luminescence reading (raw, replicate wells)” value ([1]; ABT-199 1.5625 uM)?
Answer: Its value is 298800 and 328200 and 290000 and 313400 and 302200 and 296200.

Question: And the “luminescence reading, everage” value ([1]; ABT-199 1.5625 uM)?
Answer: The value was 304800.

Question: What about the inhibition rate ([1]; ABT-199 1.5625 uM, replicate wells) of the same compound?
Answer: The inhibition rate was 52% and 49% and 50% and 51%.

Question: What about the “luminescence reading (raw, replicate wells)” value ([1]; ABT-199 3.125 uM) of the same compound?
Answer: The value was 264200 and 271400 and 265500 and 281900 and 276200 and 275000.

Question: And the “luminescence reading, everage” value ([1]; ABT-199 3.125 uM)?
Answer: Its value is 272367.

Question: And the inhibition rate ([1]; ABT-199 3.125 uM, replicate wells)?
Answer: Its inhibition rate is 56% and 54%.

Question: And the “luminescence reading (raw, replicate wells)” value ([1]; ABT-199 6.25 uM)?
Answer: The value was 239200 and 242900 and 250800 and 260000 and 262000 and 251900.

Question: What about the “luminescence reading, everage” value ([1]; ABT-199 6.25 uM) of the same compound?
Answer: The value was 251133.

Question: What about the inhibition rate ([1]; ABT-199 6.25 uM, replicate wells) of the same compound?
Answer: The inhibition rate was 59% and 57%.

Question: What about the “luminescence reading (raw, replicate wells)” value ([1]; ABT-199 12.5 uM) of the same compound?
Answer: Its value is 192300 and 201400 and 189800 and 189400 and 190500 and 194300.

Question: And the “luminescence reading, everage” value ([1]; ABT-199 12.5 uM)?
Answer: The value was 192950.

Question: What about the inhibition rate ([1]; ABT-199 12.5 uM, replicate wells) of the same compound?
Answer: Its inhibition rate is 69% and 68%.

Question: And the “luminescence reading (raw, replicate wells)” value ([1]; ABT-199 25 uM)?
Answer: The value was 124100 and 129200 and 123800 and 128900 and 121100 and 127700.

Question: And the “luminescence reading, everage” value ([1]; ABT-199 25 uM)?
Answer: Its value is 125800.

Question: And the inhibition rate ([1]; ABT-199 25 uM, replicate wells)?
Answer: Its inhibition rate is 80%.

Question: And the “luminescence reading (raw, replicate wells)” value ([1]; ABT-199 50 uM)?
Answer: The value was 61440 and 62870 and 63340 and 62270 and 63280 and 66020.

Question: And the “luminescence reading, everage” value ([1]; ABT-199 50 uM)?
Answer: The value was 63203.

Question: What about the inhibition rate ([1]; ABT-199 50 uM, replicate wells) of the same compound?
Answer: The inhibition rate was 89%.

Question: What about the “luminescence reading (raw, replicate wells)” value ([1]; ABT-199 100 uM) of the same compound?
Answer: The value was 19300 and 21810 and 21770 and 21930 and 21040 and 20180.

Question: And the “luminescence reading, everage” value ([1]; ABT-199 100 uM)?
Answer: The value was 21005.

Question: And the inhibition rate ([1]; ABT-199 100 uM, replicate wells)?
Answer: The inhibition rate was 97%.

Question: What about the “luminescence reading (raw, replicate wells)” value ([1]; ABT-199 200 uM) of the same compound?
Answer: The value was 4077 and 3911 and 4092 and 4449 and 4173 and 4465.

Question: What about the “luminescence reading, everage” value ([1]; ABT-199 200 uM) of the same compound?
Answer: The value was 4195.

Question: And the inhibition at 1.5625 µM ([1]; Homo sapiens, A549, BCL2-WT A549, ABT-199 1.5625 uM, replicate wells, read-out: inhibition rate)?
Answer: Its inhibition at 1.5625 µM is 46%.

Question: What about the inhibition at 3.125 µM ([1]; Homo sapiens, A549, BCL2-WT A549, ABT-199 3.125 uM, replicate wells, read-out: inhibition rate) of the same compound?
Answer: The inhibition at 3.125 µM was 55%.

Question: What about the inhibition at 6.25 µM ([1]; Homo sapiens, A549, BCL2-WT A549, ABT-199 6.25 uM, replicate wells, read-out: inhibition rate) of the same compound?
Answer: The inhibition at 6.25 µM was 60%.

Question: And the inhibition at 12.5 µM ([1]; Homo sapiens, A549, BCL2-WT A549, ABT-199 12.5 uM, replicate wells, read-out: inhibition rate)?
Answer: The inhibition at 12.5 µM was 67%.

Question: And the inhibition at 25 µM ([1]; Homo sapiens, A549, BCL2-WT A549, ABT-199 25 uM, replicate wells, read-out: inhibition rate)?
Answer: The inhibition at 25 µM was 79%.

Question: And the inhibition at 50 µM ([1]; Homo sapiens, A549, BCL2-WT A549, ABT-199 50 uM, replicate wells, read-out: inhibition rate)?
Answer: The inhibition at 50 µM was 90%.

Question: And the inhibition at 100 µM ([1]; Homo sapiens, A549, BCL2-WT A549, ABT-199 100 uM, replicate wells, read-out: inhibition rate)?
Answer: The inhibition at 100 µM was 96%.

Question: And the inhibition at 200 µM ([1]; Homo sapiens, A549, BCL2-WT A549, ABT-199 200 uM, replicate wells, read-out: inhibition rate)?
Answer: Its inhibition at 200 µM is 99%.

Question: What about the IC50 ([1]; Homo sapiens, A549, 48 h, CellTiter-Glo, n = 6) of the same compound?
Answer: The IC50 was 2500 ± 200 nM.

Question: What about the “cell apoptosis(%)” value (Jurkat cells [2]; Figure 6b, replicate values) of the same compound?
Answer: Its value is 94.5% and 85.6%.

Question: What about the “Proportion of apoptotic cells” value (Jurkat cells [2]; Jurkat, 24 h, 2.5 μM) of the same compound?
Answer: Its value is 94.5%.

Question: And the “Cytochrome C level in mitochondria” value (Jurkat cells [3])?
Answer: The value was “decreased clearly”.
